In patent US20070027136A1, “Formulations of anthraquinone derivatives” (priority 2003, published 2007):

Experiment: AQMN content before and after freeze drying
Assay type: physicochemical
Settings: 40 mg/ml, 10 mM sodium phosphate buffer pH 7.0
Method: Formulated AQ4N material was prepared at 40 mg/ml in 10 mM sodium phosphate buffer at pH 7.0. A portion of this solution was filled into ampoules and the remained into vials and freeze dried according to the cycle as specified in Tables 9 and 10.
The AQMN content of the samples before and after freeze drying (ampoule fill and vial fill, respectively) were measured as shown in Table 11.

- AQMN content (% peak area w.r.t. std.): 22.6%
Compound: C[N+](C)([O-])CCNc1ccc(NCC[N+](C)(C)[O-])c2c1C(=O)c1c(O)ccc(O)c1C2=O [AQ4N raw material]
